The values below come from patent publication US20240139190A1, “NOVEL ANTIPARASITIC COMPOUNDS AND METHODS” (The Board of Regents of The University of Texas System, priority 2019, published 2024).

The subject of assay [1] is L. donovani axenic amastigotes. In words: alamarBlue assay, L. donovani axenic amastigotes. In kind it is cell-based, Leishmania donovani. The method, then: For other parasites, L. donovani, strain MHOM/SD/62/1S-C12D, was grown as previously described. Plasmodium falciparum parasites of the 3D7 strain were cultured in RPMI 1640 medium supplemented with 37.5 mM HEPES, 10 mM D-glucose, 2 mM L-glutamine, 100 μM hypoxanthine, 25 μg/mL gentamicin, 4% (v/v) human serum and 0.25% (v/v) Albumax II, at a 2% haematocrit in an atmosphere of 1% 02, 3% CO2 and 96% N2. Staging and parasitemia of the in vitro culture were assessed by light microscopy of Giemsa-stained thin blood smears.
Leishmania amazonensis axenic amastigotes (100 μL, 2×10^6 cells/mL) were added to 96-multiwell plates containing 100 μL of amastigote culture medium with an appropriate compound dilution series. 0.1% DMSO (no drug) served as a positive control (100%), and 5 μM amphotericin B served as a negative growth control (0%). Only internal wells were used to minimize edge effects from evaporation. […] Similarly, the cytotoxicity of each compound was determined against RAW 264.7 cells and HepG2 cell lines, following 72 h incubation at 37° C. […]
MMV676477 was tested against several other parasites: the axenic amastigotes of Leishmania donovani and Leishmania tarentolae, blood-stage Plasmodium falciparum, and Trypanosoma brucei. The compound's activity was measured using alamarBlue®, Malaria SYBR green I fluorescence (MSF) and CellTiter-Glo® luminescent assays. […]

A further assay has as its target T1, purified porcine tubulin (Sus scrofa, UniProt P02550+P02554).
T1 construct: purchased Cytoskeleton, Inc. T240
The assay can be described thus: Tubulin polymerization turbidity assay, mammalian tubulin. In kind it is biochemical. The method, then:
Tubulin polymerization assays were performed in 96-well half-area microplates (Costar) in a final volume of 100 μL. Briefly, Leishmanial or porcine tubulin (>99% pure, Cat. #T240, Cytoskeleton, Inc.) in 50 μL volume was pre-treated with drugs on ice for 5 minutes before adding 50 μL ice cold buffer, to provide a final concentration of 3 mg/ml tubulin in 80 mM PIPES pH 6.9, 2 mM MgCl2, 0.5 mM EGTA, 1 mM GTP, and 1% DMSO unless specified otherwise. The absorbance at 340 nm was recorded in a Synergy H1 microplate reader (BioTek) for up to 45 min at 37° C. (porcine tubulin) or 30° C. (L. tarentolae tubulin).
To determine the selectivity of MMV676477, purified porcine tubulin was exposed to a serial dilution of the drug (0 to 25 μM) and absorbance was measured at 340 nm over time. […] To ensure that the absorbance seen at 340 nm reflected microtubule formation and not precipitation, a fluorescent microtubule assembly assay was employed.

Assay [2] has as its system L. amazonensis promastigotes and amastigotes. The assay can be described thus: Tubulin intensity by confocal immunofluorescence microscopy. In kind it is cell-based, Leishmania amazonensis. Conditions: 24 h at EC50^72 h. Here is the method: Promastigotes or amastigotes were treated with the indicated compound concentrations and allowed to adhere to poly-L-lysine coated plates. All cells were fixed with 4% paraformaldehyde and permeabilized/blocked with 0.01% Triton X-100 and 2% BSA in PBS. Promastigotes and amastigotes were incubated with mouse anti-gp46 or anti-p8, respectively at 1:50 or 1:1000 and rat anti-alpha-tubulin antibody at 1:1000. Samples were then probed with A568 anti-mouse and […] secondary antibodies (Molecular Probes). DNA was labeled with Hoescht. Samples were visualized on a Zeiss LSM 880 Inverted confocal Airyscan microscope at 63×; full Z-thicknesses through parasites were obtained. […] For microscopic analysis of mitotic arrest, at least 200 parasites were analyzed per condition per experiment after 48 hrs incubation at compounds' EC50, and the average plus standard error for three experiments was calculated. Representative images were selected from the maximal intensity projections and linearly processed in Adobe Photoshop CS6.
One reason why MMV676477 might affect parasite cell division is that, like paclitaxel, it might affect microtubule polymerization, either directly or indirectly. The degree to which MMV676477 affected microtubules polymerization in cells was examined. […] Centrifugation of these extracts allowed separation of insoluble polymeric (pellet) and soluble dimeric (supernatant) tubulin. […] The intensity of α-tubulin staining was examined by normalizing it to the intensity of a membrane protein (gp46 for promastigotes in FIG. 4D; p8 for amastigotes in FIG. 4E).

Assay [3] has as its target purified L. tarentolae tubulin (Leishmania tarentolae, UniProt A0A640KCM0+A0A640KQN0). The assay can be described thus: Tubulin polymerization turbidity assay, Leishmania tubulin. In kind it is biochemical. The method, then: L. tarentolae (Parrot strain from ATCC) tubulin was purified. Briefly, promastigotes of L. tarentolae were grown to a high density (˜1×10^8 cells/mL), harvested, and resuspended in PME+P buffer containing 100 mM piperazine N, N′-bis (2-ethanesulfonic acid) (PIPES) buffer (pH 6.9), 1 mM glycol ether diamine tetraacetic acid (EGTA), 1 mM MgCl2, 1 mM benzamidine, 0.5 mM phenylmethylsulfonyl fluoride, 25 μg/ml leupeptin. The resulting suspension was extensively sonicated on ice with a probe sonicator (Misonix), cooled on ice for 30 minutes and centrifuged at 40,000×g for 1 hour at 4° C. using an ultracentrifuge (Beckman, Fullerton, CA). The resulting supernatant was filtered through a glass wool or 0.45-micron filter before loading into an equilibrated DEAE-Sepharose Fast Flow matrix (Amersham Biosciences). The column was washed with two column volumes of PME+P and subsequently four column volumes PME+P containing 0.1 M KCl and 0.25 M glutamate (pH 6.9). Tubulin was eluted with two column volumes PME+P containing 0.3 M KCl and 0.75 M glutamate (pH 6.9), and tubulin-rich fractions were confirmed by tubulin polymerization assays. The assembly-competent tubulin was pooled together and diluted into 1×PME buffer, 2 mM GTP, 10 mM MgCl2 and 8% DMSO (v/v). Tubulin was incubated in this buffer for 45 minutes at 30° C. to promote assembly, centrifuged at 50,000×g at 30° C. for 30 min, and re-suspended in 1 mL of ice-cold PME. […] Purity was assessed by SDS-PAGE and Coomassie Blue.
Tubulin polymerization assays were performed in 96-well half-area microplates (Costar) in a final volume of 100 μL. […] The absorbance at 340 nm was recorded in a Synergy H1 microplate reader (BioTek) for up to 45 min at 37° C. […]
To determine whether MMV676477 directly regulates microtubule assembly, assembly-competent tubulin from Leishmania tarentolae was purified and analyzed (FIG. 5A). […] 3 mg/mL purified L. tarentolae tubulin (3 mg/mL) was treated with serial dilutions of MMV676477 while the absorbance was measured at 340 nm over time.

`CCc1c(C)nc(-n2nc(C)cc2NC(=O)c2ccccc2SC)[nH]c1=O` [MMV676477, N-(1-(5-Ethyl-4-methyl-6-oxo-1,6-dihydropyrimidin-2-yl)-3-methyl-1H-pyrazol-5-yl)-2-(methylthio)benzamide]: the “activity against L. donovani axenic amastigotes (in words)” value in assay [1] is on record as “broad activity”. Also, the EC50 on purified porcine tubulin (3 mg/ml tubulin, 1% DMSO, A340) stood at 11 µM; in assay [3], 0.5 µM. Moreover, the “tubulin polymerization activity with detergent” value on purified porcine tubulin (0.01% Triton-X treatment) was “not affected”. Moreover, the “Maximum absorbance (A340, 10% DMSO)” value on purified porcine tubulin (mammalian tubulin) was 0.4. Besides, the “tubulin intensity over control (DMSO-treated)” value in assay [2] is reported as “significant two-fold increase in tubulin intensity”. Besides, in assay [3] (0.5 vs 11 μM EC50), the “selectivity for purified Leishmania tubulin over mammalian tubulin” value worked out at 20 fold.
